Laboratory results as given in patent US8835377B2, “Oral delivery of peptide pharmaceutical compositions” (UGP Therapeutics, Inc., priority 2004, dated 2014).

Experiment: Pharmacokinetics after oral capsules (sCT plus Dmt-DALDA with citric acid and lauroyl carnitine), non-enteric coated or enteric coated, in fasted beagle dogs (plasma; ELISA for sCT, HPLC-MS for Dmt-DALDA)
Type: in vivo
Settings: for AUC / Cmax: normalized to a 1 mg dose; for Tmax / Cmax: beagle, dog, plasma, oral; for plasma peptide concentration normalized to a 1 mg dose: enteric coated capsule
Description: A second series of tests was carried out, as noted above, using beagle dogs. […] In the experiments represented in FIGS. 2A and 2B, size 00 […] capsules were each filled with 758 mg of a powdered blend consisting of citric acid (643 mg), lauroyl carnitine (66 mg), talc (33 mg), salmon calcitonin (sCT) (13 mg) and Dmt-DALDA (2.4 mg). Half of the capsules were coated with an enteric coating solution of L30D-55, while the remaining 50% of the capsules were not coated. Four fasted dogs were each given 1 uncoated capsule, and 2 weeks later they were each given an enteric coated capsule. After administration of each capsule, samples of blood were taken at 15 minute intervals from an indwelling catheter for up to 4 hours. The blood samples were centrifuged and the resulting plasma supernatants were stored frozen at −20° C. The plasma samples were subsequently analyzed for sCT by a direct ELISA, and for Dmt-DALDA by HPLC-mass spectrometry performed as set forth in Wan, H. and Desiderio, D., Quantitation of [DMT^1] DALDA in ovine plasma by on-line liquid chromatography/quadrapole time-of-flight mass spectrometry, Rapid Communications in Mass Spectrometry, 2003; 17, 538-546, the contents of which are incorporated herein by reference.
The results summarized in FIGS. 2A and 2B as plasma peptide concentration normalized to a 1 mg dose as a function of time relative to the average Tmax, (i.e., the time at which the maximum amount of peptide was detected) indicate that both peptides, i.e., sCT and Dmt-DALDA, were detected in dogs given uncoated or enteric coated capsules. […] Table DI (below) sets forth the values upon which the curves in FIGS. 2A and 2B are based. The results are summarized in the tables as plasma peptide concentration normalized to a 1 mg dose as a function of time. Table III, moreover, provides the standard deviations for the data obtained regarding each of the test dogs, which standard deviations are also indicated in FIGS. 2A and 2B.
Table IV (below) summarizes the pharmacokinetic parameters in dogs of orally administered sCT and Dmt-DALDA when administered in non-enteric coated versus enteric coated capsules. Peptide was not detected from 1 dog in each group due to (a) Dog 3 vomiting the uncoated capsule and (b) delayed gastric emptying in Dog 2 provided with an enteric coated capsule. Cmax and AUC are as defined with regard to Table H above.

[1] = Non-Enteric Capsule, Avg (n = 3)

`Cc1cc(O)cc(C)c1C[C@H](N)C(=O)N[C@H](CCCNC(=N)N)C(=O)N[C@@H](Cc1ccccc1)C(=O)N[C@@H](CCCCN)C(N)=O` [Dmt-DALDA, H-2,6-dimethyltyrosine-D-Arginine-Phenylalanine-Lysine-NH2] showed an AUC (Enteric Capsule, Avg (n = 3)) of 1443143 pg/mL-min, an AUC (Enteric Capsule, Dog 1) of 2375695 pg/mL-min and an AUC (Enteric Capsule, Dog 2 (delayed gastric emptying)) of 0 pg/mL-min. The AUC (Enteric Capsule, Dog 3) was 1185373 pg/mL-min, the AUC (Enteric Capsule, Dog 4) was 768361 pg/mL-min and the AUC [1] was 542977 pg/mL-min. For the same molecule, the AUC (Non-Enteric Capsule, Dog 1) was 410944 pg/mL-min, the AUC (Non-Enteric Capsule, Dog 2) was 707054 pg/mL-min and the AUC (Non-Enteric Capsule, Dog 3 (vomited capsule)) was 0 pg/mL-min. The AUC (Non-Enteric Capsule, Dog 4) was 510934 pg/mL-min, the Tmax (Enteric Capsule, Avg (n = 3)) was 100 min and the Cmax (Enteric Capsule, Avg (n = 3)) was 21 ng/mL. For the same molecule, the Tmax (Enteric Capsule, Dog 1) was 45 min, the Cmax (Enteric Capsule, Dog 1) was 29.4 ng/mL and the Tmax (Enteric Capsule, Dog 3) was 135 min. The Cmax (Enteric Capsule, Dog 3) was 21.5 ng/mL, the Tmax (Enteric Capsule, Dog 4) was 120 min and the Cmax (Enteric Capsule, Dog 4) was 12.1 ng/mL. It also gave a Tmax [1] of 40 min, a Cmax [1] of 5.79 ng/mL and a Tmax (Non-Enteric Capsule, Dog 1) of 45 min. The Cmax (Non-Enteric Capsule, Dog 1) was 5.1 ng/mL, the Tmax (Non-Enteric Capsule, Dog 2) was 30 min and the Cmax (Non-Enteric Capsule, Dog 2) was 6.47 ng/mL. For the same molecule, the Tmax (Non-Enteric Capsule, Dog 4) was 45 min, the Cmax (Non-Enteric Capsule, Dog 4) was 5.79 ng/mL and the “Cmax and AUC, enteric coated capsules versus non enteric-coated capsules” value (dogs) was “significantly enhanced”. The “Cmax of enteric coated relative to non enteric coated” value (dogs) was 4 fold, the “amount of peptide detected in plasma, enteric coated capsules vs non-coated capsules” value (dogs) was “nearly four times as much” and the “time at which the maximum concentration was seen” value (dogs given coated capsules) was 105 min. For the same molecule, the “amount of Dmt-DALDA detected relative to sCT” value (dogs given enteric coated capsules) was “nearly equal amounts”, the “amount of Dmt-DALDA detected relative to sCT” value (dogs given uncoated capsules) was “nearly three times as much” and the “time at which the maximum concentration was seen” value (dogs given uncoated capsules) was 30 min. The “plasma peptide concentration normalized to a 1 mg dose” value (Dog 1, 0 min) was 0 pg/mL, the “plasma peptide concentration normalized to a 1 mg dose” value (Dog 1, 15 min) was 0 pg/mL and the “plasma peptide concentration normalized to a 1 mg dose” value (Dog 1, 30 min) was 0 pg/mL. For the same molecule, the “plasma peptide concentration normalized to a 1 mg dose” value (Dog 1, 45 min) was 29440 pg/mL, the “plasma peptide concentration normalized to a 1 mg dose” value (Dog 1, 60 min) was 25224 pg/mL and the “plasma peptide concentration normalized to a 1 mg dose” value (Dog 1, 75 min) was 19768 pg/mL. For the same molecule, the “plasma peptide concentration normalized to a 1 mg dose” value (Dog 1, 90 min) was 19021 pg/mL, the “plasma peptide concentration normalized to a 1 mg dose” value (Dog 1, 105 min) was 12324 pg/mL and the “plasma peptide concentration normalized to a 1 mg dose” value (Dog 1, 120 min) was 8108 pg/mL. The “plasma peptide concentration normalized to a 1 mg dose” value (Dog 1, 135 min) was 10714 pg/mL, the “plasma peptide concentration normalized to a 1 mg dose” value (Dog 1, 150 min) was 9349 pg/mL and the “plasma peptide concentration normalized to a 1 mg dose” value (Dog 1, 165 min) was 6743 pg/mL. The “plasma peptide concentration normalized to a 1 mg dose” value (Dog 1, 180 min) was 5502 pg/mL, the “plasma peptide concentration normalized to a 1 mg dose” value (Dog 1, 195 min) was 5008 pg/mL and the “plasma peptide concentration normalized to a 1 mg dose” value (Dog 1, 210 min) was 3021 pg/mL. The “plasma peptide concentration normalized to a 1 mg dose” value (Dog 2 (delayed gastric emptying), 0 min) was 0 pg/mL, the “plasma peptide concentration normalized to a 1 mg dose” value (Dog 2 (delayed gastric emptying), 15 min) was 0 pg/mL and the “plasma peptide concentration normalized to a 1 mg dose” value (Dog 2 (delayed gastric emptying), 30 min) was 0 pg/mL. For the same molecule, the “plasma peptide concentration normalized to a 1 mg dose” value (Dog 2 (delayed gastric emptying), 45 min) was 0 pg/mL, the “plasma peptide concentration normalized to a 1 mg dose” value (Dog 2 (delayed gastric emptying), 60 min) was 0 pg/mL and the “plasma peptide concentration normalized to a 1 mg dose” value (Dog 2 (delayed gastric emptying), 75 min) was 0 pg/mL. For the same molecule, the “plasma peptide concentration normalized to a 1 mg dose” value (Dog 2 (delayed gastric emptying), 90 min) was 0 pg/mL, the “plasma peptide concentration normalized to a 1 mg dose” value (Dog 2 (delayed gastric emptying), 105 min) was 0 pg/mL and the “plasma peptide concentration normalized to a 1 mg dose” value (Dog 2 (delayed gastric emptying), 120 min) was 0 pg/mL. For the same molecule, the “plasma peptide concentration normalized to a 1 mg dose” value (Dog 2 (delayed gastric emptying), 135 min) was 0 pg/mL, the “plasma peptide concentration normalized to a 1 mg dose” value (Dog 2 (delayed gastric emptying), 150 min) was 0 pg/mL and the “plasma peptide concentration normalized to a 1 mg dose” value (Dog 2 (delayed gastric emptying), 165 min) was 0 pg/mL. For the same molecule, the “plasma peptide concentration normalized to a 1 mg dose” value (Dog 2 (delayed gastric emptying), 180 min) was 0 pg/mL, the “plasma peptide concentration normalized to a 1 mg dose” value (Dog 2 (delayed gastric emptying), 195 min) was 0 pg/mL and the “plasma peptide concentration normalized to a 1 mg dose” value (Dog 2 (delayed gastric emptying), 210 min) was 0 pg/mL. For the same molecule, the “plasma peptide concentration normalized to a 1 mg dose” value (Dog 3, 0 min) was 0 pg/mL, the “plasma peptide concentration normalized to a 1 mg dose” value (Dog 3, 15 min) was 0 pg/mL and the “plasma peptide concentration normalized to a 1 mg dose” value (Dog 3, 30 min) was 0 pg/mL.
